Data taken from patent US10251395B2, “Substituted furano-/thienocycloalkylamino-2-pyrimidine derivatives and use thereof for controlling undesired plant growth” (Bayer CropScience Aktiengesellschaft, priority 2015, dated 2019).

How the values were obtained:
Amaranthus retroflexus [1] = assay: Pre-emergence herbicidal effect; format: in vivo; conditions: scored visually after 3 weeks
Outline: (§1)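 Seeds sown in sandy loam and covered with soil; WP or EC formulations sprayed onto the soil surface as aqueous suspension/emulsion at 600 to 800 L/ha water with 0.2% wetting agent. Greenhouse-grown; damage scored visually after 3 weeks against untreated controls (100% = plants dead, 0% = like control).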

Alopecurus myosuroides = assay: Pre-emergence herbicidal effect; format: in vivo; conditions: scored visually after 3 weeks
Outline: as §1

Lolium multiflorum [2] = assay: Pre-emergence herbicidal effect; format: in vivo; conditions: scored visually after 3 weeks
Outline: as §1

Echinochloa crus-galli [3] = assay: Pre-emergence herbicidal effect; format: in vivo; conditions: scored visually after 3 weeks
Outline: as §1

Veronica persica [4] = assay: Pre-emergence herbicidal effect; format: in vivo; conditions: scored visually after 3 weeks
Outline: as §1

Matricaria inodora [5] = assay: Pre-emergence herbicidal effect; format: in vivo; conditions: scored visually after 3 weeks
Outline: as §1

Viola tricolor [6] = assay: Pre-emergence herbicidal effect; format: in vivo; conditions: scored visually after 3 weeks
Outline: as §1

Abutilon theophrasti [7] = assay: Pre-emergence herbicidal effect; format: in vivo; conditions: Dosage 320 g/ha, scored visually after 3 weeks
Outline: as §1

Setaria viridis [8] = assay: Pre-emergence herbicidal effect; format: in vivo; conditions: scored visually after 3 weeks
Outline: as §1

Stellaria media [9] = assay: Pre-emergence herbicidal effect; format: in vivo; conditions: scored visually after 3 weeks
Outline: as §1

logP (HCOOH) = format: physicochemical; conditions: HCOOH
From the text: Table 2 (physicochemical characterization of selected synthesis examples)

Amaranthus retroflexus [10] = assay: Post-emergence herbicidal effect; format: in vivo; conditions: assessed visually after about 3 weeks vs untreated controls
Outline: (§2)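 Percent herbicidal action was judged by eye roughly 3 weeks post-application, 0% matching control plants and 100% meaning plant death. Seedlings, greenhouse-grown in sandy loam, received the spray at one leaf.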

Lolium multiflorum [11] = assay: Post-emergence herbicidal effect; format: in vivo; conditions: 320 g/ha, assessed visually after about 3 weeks vs untreated controls
Outline: as §2

Echinochloa crus-galli [12] = assay: Post-emergence herbicidal effect; format: in vivo; conditions: assessed visually after about 3 weeks vs untreated controls
Outline: as §2

Viola tricolor [13] = assay: Post-emergence herbicidal effect; format: in vivo; conditions: assessed visually after about 3 weeks vs untreated controls
Outline: as §2

Stellaria media [14] = assay: Post-emergence herbicidal effect; format: in vivo; conditions: assessed visually after about 3 weeks vs untreated controls
Outline: as §2

Polygonum convolvulus [15] = assay: Pre-emergence herbicidal effect; format: in vivo; conditions: scored visually after 3 weeks
Outline: as §1

Veronica persica [16] = assay: Post-emergence herbicidal effect; format: in vivo; conditions: assessed visually after about 3 weeks vs untreated controls
Outline: as §2

Matricaria inodora [17] = assay: Post-emergence herbicidal effect; format: in vivo; conditions: assessed visually after about 3 weeks vs untreated controls
Outline: as §2

Ipomoea purpurea = assay: Post-emergence herbicidal effect; format: in vivo; conditions: 320 g/ha, assessed visually after about 3 weeks vs untreated controls
Outline: as §2

Abutilon theophrasti [18] = assay: Post-emergence herbicidal effect; format: in vivo; conditions: assessed visually after about 3 weeks vs untreated controls
Outline: as §2

Setaria viridis [19] = assay: Post-emergence herbicidal effect; format: in vivo; conditions: 320 g/ha, assessed visually after about 3 weeks vs untreated controls
Outline: as §2

Avena fatua = assay: Pre-emergence herbicidal effect; format: in vivo; conditions: scored visually after 3 weeks
Outline: as §1

Polygonum convolvulus [20] = assay: Post-emergence herbicidal effect; format: in vivo; conditions: assessed visually after about 3 weeks vs untreated controls
Outline: as §2

Row | SMILES | AMARE pre-emergence efficacy (herbicidal activity) (Amaranthus retroflexus [1]; Dosage 320 g/ha) [%] | ALOMY pre-emergence efficacy (herbicidal activity) (Alopecurus myosuroides; Dosage 320 g/ha) [%] | ECHCG pre-emergence efficacy (herbicidal activity) (Echinochloa crus-galli [3]; Dosage 320 g/ha) [%] | VERPE pre-emergence efficacy (herbicidal activity) (Veronica persica [4]; Dosage 320 g/ha) [%] | MATIN pre-emergence efficacy (herbicidal activity) (Matricaria inodora [5]; Dosage 80 g/ha) [%] | MATIN pre-emergence efficacy (herbicidal activity) (Matricaria inodora [5]; Dosage 320 g/ha) [%] | VIOTR pre-emergence efficacy (herbicidal activity) (Viola tricolor [6]; Dosage 80 g/ha) [%] | VIOTR pre-emergence efficacy (herbicidal activity) (Viola tricolor [6]; Dosage 320 g/ha) [%] | ABUTH pre-emergence efficacy (herbicidal activity) (Abutilon theophrasti [7]) [%] | SETVI pre-emergence efficacy (herbicidal activity) (Setaria viridis [8]; Dosage 320 g/ha) [%] | STEME pre-emergence efficacy (herbicidal activity) (Stellaria media [9]; Dosage 80 g/ha) [%] | STEME pre-emergence efficacy (herbicidal activity) (Stellaria media [9]; Dosage 320 g/ha) [%] | post-emergence efficacy ECHCG (Echinochloa crus-galli [12]; 320 g/ha) [%] | post-emergence efficacy VIOTR (Viola tricolor [13]; 320 g/ha) [%] | post-emergence efficacy STEME (Stellaria media [14]; 320 g/ha) [%] | AMARE pre-emergence efficacy (herbicidal activity) (Amaranthus retroflexus [1]; Dosage 80 g/ha) [%] | ECHCG pre-emergence efficacy (herbicidal activity) (Echinochloa crus-galli [3]; Dosage 80 g/ha) [%] | VERPE pre-emergence efficacy (herbicidal activity) (Veronica persica [4]; Dosage 80 g/ha) [%] | POLCO pre-emergence efficacy (herbicidal activity) (Polygonum convolvulus [15]; Dosage 320 g/ha) [%] | SETVI pre-emergence efficacy (herbicidal activity) (Setaria viridis [8]; Dosage 80 g/ha) [%] | further results
1 | Cc1cc2c(o1)CCCC2Nc1ncc(S(C)(=O)=O)c(N)n1 (racemic) [compound 62] | 100 | 60 | 80 | 90 | 80 | 100 | 90 | 100 | 90 | 80 | 90 | 100 | 40 | 100 | 90 |  |  |  |  |  | LOLMU pre-emergence efficacy (herbicidal activity) (Lolium multiflorum [2]; Dosage 320 g/ha): 50%; logP (HCOOH) (logP (HCOOH)): oily; logP (HCOOH): 1.78; 1H NMR (CDCl3, 400 MHZ, δ in ppm): 1.70-2.00 (m, 4H,; post-emergence efficacy AMARE (Amaranthus retroflexus [10]; 80 g/ha): 80%; post-emergence efficacy AMARE (Amaranthus retroflexus [10]; 320 g/ha): 90%; post-emergence efficacy LOLMU (Lolium multiflorum [11]): 80%
2 | CC(=O)c1cnc(NC2CCCc3sc(C)cc32)nc1N (racemic) [compound 150] | 100 | 100 | 100 | 100 |  |  | 100 | 100 | 70 | 100 | 100 | 100 | 80 | 90 | 100 | 100 | 90 | 70 | 100 | 100 | ALOMY pre-emergence efficacy (herbicidal activity) (Alopecurus myosuroides; Dosage 80 g/ha): 90%; LOLMU pre-emergence efficacy (herbicidal activity) (Lolium multiflorum [2]; Dosage 80 g/ha): 100%; LOLMU pre-emergence efficacy (herbicidal activity) (Lolium multiflorum [2]; Dosage 320 g/ha): 100%; logP (HCOOH) (logP (HCOOH)): oily; logP (HCOOH): 1.51; 1H NMR (CDCl3, 400 MHZ, δ in ppm): 1.85 (m, 3H, 3H of; post-emergence efficacy AMARE (Amaranthus retroflexus [10]; 80 g/ha): 80%; post-emergence efficacy AMARE (Amaranthus retroflexus [10]; 320 g/ha): 90%; post-emergence efficacy LOLMU (Lolium multiflorum [11]): 90%; post-emergence efficacy VERPE (Veronica persica [16]; 80 g/ha): 100%; post-emergence efficacy VERPE (Veronica persica [16]; 320 g/ha): 100%; post-emergence efficacy MATIN (Matricaria inodora [17]; 80 g/ha): 80%; post-emergence efficacy MATIN (Matricaria inodora [17]; 320 g/ha): 90%; post-emergence efficacy PHBPU (Ipomoea purpurea): 90%; post-emergence efficacy VIOTR (Viola tricolor [13]; 80 g/ha): 80%; post-emergence efficacy ABUTH (Abutilon theophrasti [18]; 80 g/ha): 80%; post-emergence efficacy ABUTH (Abutilon theophrasti [18]; 320 g/ha): 80%; post-emergence efficacy SETVI (Setaria viridis [19]): 90%; post-emergence efficacy STEME (Stellaria media [14]; 80 g/ha): 80%
3 | Cc1cc2c(s1)CCCC2Nc1nc(N)c([S+](C)[O-])c(C(C)F)n1 (racemic) [compound 309] | 100 | 90 | 90 | 100 | 90 | 100 | 100 | 100 | 80 | 100 | 100 | 100 |  |  |  | 90 | 60 | 100 | 100 | 90 | AVEFA pre-emergence efficacy (herbicidal activity) (Avena fatua; Dosage 320 g/ha): 90%; POLCO pre-emergence efficacy (herbicidal activity) (Polygonum convolvulus [15]; Dosage 80 g/ha): 100%
4 | Nc1nc(NC2CCc3sccc32)ncc1C(F)(F)F (racemic) [compound 215] | 100 | 90 | 100 | 100 | 100 | 100 | 80 | 90 |  | 100 | 100 | 100 |  |  |  | 100 | 80 | 100 | 100 | 90 | LOLMU pre-emergence efficacy (herbicidal activity) (Lolium multiflorum [2]; Dosage 320 g/ha): 100%; AVEFA pre-emergence efficacy (herbicidal activity) (Avena fatua; Dosage 80 g/ha): 70%; AVEFA pre-emergence efficacy (herbicidal activity) (Avena fatua; Dosage 320 g/ha): 70%
5 | CS(=O)(=O)c1cnc(NC2CCCc3cc(Cl)sc32)nc1N (racemic) [compound 53] | 100 |  | 100 | 100 | 100 | 100 | 100 | 100 |  | 100 | 80 | 100 | 90 | 100 | 100 | 100 | 100 | 100 | 90 |  | logP (HCOOH) (logP (HCOOH)): solid; logP (HCOOH): 2.41; 1H NMR (CDCl3, 400 MHZ, δ in ppm): 1.75-2.00 (m,; post-emergence efficacy AMARE (Amaranthus retroflexus [10]; 80 g/ha): 90%; post-emergence efficacy AMARE (Amaranthus retroflexus [10]; 320 g/ha): 100%; post-emergence efficacy ECHCG (Echinochloa crus-galli [12]; 80 g/ha): 80%; post-emergence efficacy VERPE (Veronica persica [16]; 80 g/ha): 90%; post-emergence efficacy VERPE (Veronica persica [16]; 320 g/ha): 90%; post-emergence efficacy PHBPU (Ipomoea purpurea): 90%; post-emergence efficacy POLCO (Polygonum convolvulus [20]; 80 g/ha): 80%; post-emergence efficacy POLCO (Polygonum convolvulus [20]; 320 g/ha): 90%; post-emergence efficacy VIOTR (Viola tricolor [13]; 80 g/ha): 90%; post-emergence efficacy SETVI (Setaria viridis [19]): 100%; post-emergence efficacy STEME (Stellaria media [14]; 80 g/ha): 100%
6 | Cc1cc2c(s1)CCCC2Nc1nc(N)c(Br)c(C(F)F)n1 (racemic) [compound 314] |  | 90 | 90 | 100 | 90 |  | 100 | 100 | 60 | 100 | 100 | 100 | 60 | 60 | 50 | 90 | 70 |  | 100 | 100 | ALOMY pre-emergence efficacy (herbicidal activity) (Alopecurus myosuroides; Dosage 80 g/ha): 60%; AVEFA pre-emergence efficacy (herbicidal activity) (Avena fatua; Dosage 320 g/ha): 60%; POLCO pre-emergence efficacy (herbicidal activity) (Polygonum convolvulus [15]; Dosage 80 g/ha): 100%; post-emergence efficacy PHBPU (Ipomoea purpurea): 90%; post-emergence efficacy ABUTH (Abutilon theophrasti [18]; 320 g/ha): 70%; post-emergence efficacy SETVI (Setaria viridis [19]): 60%
